Experimental data from US12590083B2, “Inhibitors of spinster homolog 2 (SPNS2) for use in therapy” (University of Virginia Patent Foundation, priority 2019, dated 2026).
Counter-ions that a name gives are not always drawn.

Target: T1, human SPNS2 (Homo sapiens, UniProt Q8IVW8)
T1 construct: expressed in transfected cells; host or cells: Saccharomyces cerevisiae strain with forced expression of a mammalian SphK and human SPNS2
T1 sequence (Q8IVW8 1-549): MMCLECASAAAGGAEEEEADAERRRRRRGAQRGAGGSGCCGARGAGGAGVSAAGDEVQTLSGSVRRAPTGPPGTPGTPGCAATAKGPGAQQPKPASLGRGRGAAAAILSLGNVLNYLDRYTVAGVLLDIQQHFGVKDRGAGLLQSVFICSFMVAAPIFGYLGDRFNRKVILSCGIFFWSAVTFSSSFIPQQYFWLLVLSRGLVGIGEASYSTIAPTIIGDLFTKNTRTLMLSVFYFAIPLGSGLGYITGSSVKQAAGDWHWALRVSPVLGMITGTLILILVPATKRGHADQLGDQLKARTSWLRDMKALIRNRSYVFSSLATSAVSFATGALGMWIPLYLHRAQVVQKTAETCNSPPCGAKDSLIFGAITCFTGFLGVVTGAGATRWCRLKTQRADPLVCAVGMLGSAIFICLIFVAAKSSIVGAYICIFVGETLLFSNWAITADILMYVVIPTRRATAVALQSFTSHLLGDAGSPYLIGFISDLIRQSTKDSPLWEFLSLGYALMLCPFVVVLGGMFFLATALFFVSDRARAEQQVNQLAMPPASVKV
Test: S1P transporter assay: growth of S. cerevisiae strain with forced expression of a mammalian SphK and human SPNS2
Type: cell-based
Details: in vitro inhibition of SPNS2; growth of S. cerevisiae strain expressing mammalian SphK and human SPNS2; compounds as their pharmaceutical salts
Outline: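 S. cerevisiae strain with forced expression of a mammalian SphK and human SPNS2; since excess phospho-LCB inhibits yeast growth, SPNS2 inhibitors reduce growth of this strain. Inhibition measured in vitro as decreased strain growth.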

SMILES	IC50 [µM]
C/C(=N\OCc1ccc(C(F)(F)F)cc1)c1ccc(-c2noc([C@@H]3CCN(C(=N)N)C3)n2)cc1 [Compound 40c, (R)-3-(3-(4-(1-(((4-(trifluoromethyl)benzyl)oxy)imino)ethyl)phenyl)-1,2,4-oxadiazol-5-yl)pyrrolidine-1-carboximidamide hydrochloride]	> 2
C/C(=N\OCc1ccc(-c2ccccc2)cc1)c1ccc(-c2noc([C@@H]3CCN(C(=N)N)C3)n2)cc1 [Compound 40d, (R)-3-(3-(4-(1-(([1,1′-biphenyl]-4-ylmethoxy)imino)ethyl)phenyl)-1,2,4-oxadiazol-5-yl)pyrrolidine-1-carboximidamide hydrochloride]	≤ 2
C/C(=N\OCc1cccc(-c2ccccc2)c1)c1ccc(-c2noc([C@@H]3CCN(C(=N)N)C3)n2)cc1 [Compound 40e, (R)-3-(3-(4-(1-(([1,1′-biphenyl]-3-ylmethoxy)imino)ethyl)phenyl)-1,2,4-oxadiazol-5-yl)pyrrolidine-1-carboximidamide hydrochloride]	≤ 2
C/C(=N\OC(C)c1ccccc1)c1ccc(-c2noc([C@@H]3CCN(C(=N)N)C3)n2)cc1 (stereo partly shown) [Compound 40f, hydrochloride]	> 2
C/C(=N\OCc1ccccc1)c1ccc(-c2noc([C@@H]3CCN(C(=N)N)C3)n2)cc1 [Compound 40g, (R)-3-(3-(4-(1-((benzyloxy)imino)ethyl)phenyl)-1,2,4-oxadiazol-5-yl)pyrrolidine-1-carboximidamide hydrochloride]	> 2
C/C(=N\OCc1ccc2c(c1)C(C)(C)CCC2(C)C)c1ccc(-c2noc([C@@H]3CCN(C(=N)N)C3)n2)cc1 [Compound 40h, (R)-3-(3-(4-(1-(((5,5,8,8-tetramethyl-5,6,7,8-tetrahydronaphthalen-2-yl)methoxy)imino)ethyl)phenyl)-1,2,4-oxadiazol-5-yl)pyrrolidine-1-carboximidamide hydrochloride]	≤ 2
CCCCCCCO/N=C(\C)c1ccc(-c2noc([C@@H]3CCN(C(=N)N)C3)n2)cc1 [Compound 40i, (R)-3-(3-(4-(1-((heptyloxy)imino)ethyl)phenyl)-1,2,4-oxadiazol-5-yl)pyrrolidine-1-carboximidamide hydrochloride]	≤ 2
CCCCCCCCCO/N=C(\C)c1ccc(-c2noc([C@@H]3CCN(C(=N)N)C3)n2)cc1 [Compound 40j, (R)-3-(3-(4-(1-((nonyloxy)imino)ethyl)phenyl)-1,2,4-oxadiazol-5-yl)pyrrolidine-1-carboximidamide hydrochloride]	> 2
C/C(=N\OCc1ccc(C(C)(C)C)cc1)c1ccc(-c2noc([C@@H]3CCN(C(=N)N)C3)n2)cc1 [Compound 40k, (R)-3-(3-(4-(1-(((4-(tert-butyl)benzyl)oxy)imino)ethyl)phenyl)-1,2,4-oxadiazol-5-yl)pyrrolidine-1-carboximidamide hydrochloride]	≤ 2

Further lines, results first:

IC50 [µM]	SMILES
> 2	CCCCCO/N=C(\C)c1ccc(-c2noc([C@@H]3CCN(C(=N)N)C3)n2)cc1 [Compound 40l, (R)-3-(3-(4-(1-((pentyloxy)imino)ethyl)phenyl)-1,2,4-oxadiazol-5-yl)pyrrolidine-1-carboximidamide hydrochloride]
> 2	C/C(=N\OCc1ccc(F)cc1)c1ccc(-c2noc([C@@H]3CCN(C(=N)N)C3)n2)cc1 [Compound 40m, (R)-3-(3-(4-(1-(((4-fluorobenzyl)oxy)imino)ethyl)phenyl)-1,2,4-oxadiazol-5-yl)pyrrolidine-1-carboximidamide hydrochloride]
> 2	C/C(=N\OCc1ccc(Br)cc1)c1ccc(-c2noc([C@@H]3CCN(C(=N)N)C3)n2)cc1 [Compound 40n, (R)-3-(3-(4-(1-(((4-bromobenzyl)oxy)imino)ethyl)phenyl)-1,2,4-oxadiazol-5-yl)pyrrolidine-1-carboximidamide hydrochloride]
> 2	CCCCCCCCNC(=O)c1ccc(-c2noc([C@@H]3CCN(C(=N)N)C3)n2)cc1 [Compound 40p, (R)-4-(5-(1-carbamimidoylpyrrolidin-3-yl)-1,2,4-oxadiazol-3-yl)-N-octylbenzamide hydrochloride]
